Experimental data: publication PMC7321108, “1-Hydroxyanthraquinones Containing Aryl Substituents as Potent and Selective Anticancer Agents” (Molecules, 2020)
Where two headings read alike, the source gives them in different places.

Experiments:
[1] = tested on: SNB-19 glioblastoma cells; assay: MTT cytotoxicity assay, SNB-19; type: cell-based; details: Homo sapiens, 72 h incubation, mean ± SEM of three experiments, read-out: Cytotoxicity (GI50) against SNB-19
Method: (§1) The cytotoxicity of the synthesized series of 4-substituted 5, 13–17, 22, 23, 2-substituted 25–30 and 2,4-disubstituted 1-hydroxy-9,10-anthraquinones 33–38, 40–45 was evaluated against a panel of seven different human cancer cell lines (glioblastoma cancer cells, human prostate cancer cells, T-cellular human leucosis, breast cancer cells) and also a normal cell line of hTERT-immortalized lung fibroblasts, using conventional MTT assay. Doxorubicin (DOX) is clinically used to treat cancer as drug in world and have a very wide antitumor spectrum. That we use them as positive control compounds. The cytotoxicity was determined by measuring the concentration inhibiting human tumor cell viability by 50% (GI50).
(§2) The human cancer cells of the glioblastoma (U-87MG, SNB-19, T98G), prostate cancer cell line (LNCAP, DU-145), the cells of T-cellular human leucosis (MT-4) and human breast cancer cells (MDA-MB-231) were used in this study. The cells were cultured in the RPMI-1640 medium that contained 10% embryonic calf serum, L-glutamine (2 mmol/L), gentamicin ([…]) and lincomycin (30 mkg/mL) in a CO2 incubator at 37 °C. The tested compounds were dissolved in DMSO and added to the cellular culture at the required concentrations. Three wells were used for each concentration. The cells which were incubated without the compounds were used as a control. Cells were placed on 96-well microliter plates and cultivated at 37 °C in 5% CO2/95% air for 72 h. The cell viability was assessed through an MTT [3-(4,5-dimethylthiazol-2-yl)-[…]-2H-tetrazolium bromide] conversion assay. A total of 1% MTT was added to each well. Four hours later, DMSO was added and mixed for 15 min. Optical density (D) of the samples was measured on a BioRad 680 multi-well spectrophotometer (USA) at the wavelength of 450 nm. The 50% cytotoxic dose GI50) of each compound (i.e., the compound concentration that causes the death of 50% of cells in a culture, or decreases the optical density twice as compared to the control wells) was calculated from the data obtained. Statistical processing of the results was performed using the Microsoft Excel-2007, […] 6.0 and GraphPad Prism 5.0 programs. The results are given as an average value ± a deviation from the average (mean ± standard error of the mean (SEM)). Reliability of differences (p) was estimated using the Student t test. The differences with p < 0.05 were considered as reliable. The experimental results are given as the data average values obtained from three independently conducted experiments.

[2] = tested on: U-87MG glioblastoma cells; assay: MTT cytotoxicity assay, U-87MG; type: cell-based; details: Homo sapiens, 72 h incubation, mean ± SEM of three experiments, read-out: Cytotoxicity (GI50) against U-87MG
Method: as §1, §2

T98G glioblastoma cells = assay: MTT cytotoxicity assay, T98G; type: cell-based; details: Homo sapiens, 72 h incubation, mean ± SEM of three experiments, read-out: Cytotoxicity (GI50) against T98G
Method: as §1, §2

[3] = tested on: LNCAP prostate cancer cells; assay: MTT cytotoxicity assay, LNCAP; type: cell-based, human; details: 72 h incubation, mean ± SEM of three experiments, read-out: Cytotoxicity (GI50) against LNCAP
Method: as §1, §2

[4] = tested on: DU-145 prostate cancer cells; assay: MTT cytotoxicity assay, DU-145; type: cell-based, human; details: Homo sapiens, DU-145, 72 h, 72 h incubation, mean ± SEM of three experiments, read-out: Cytotoxicity (GI50) against DU-145
Method: as §1, §2

[5] = tested on: MT-4 cells of T-cellular human leucosis; assay: MTT cytotoxicity assay, MT-4; type: cell-based; details: MT4, 72 h incubation, mean ± SEM of three experiments, read-out: Cytotoxicity (GI50) against MT-4
Method: as §1, §2

[6] = tested on: MDA-MB-231 breast cancer cells; assay: MTT cytotoxicity assay, MDA-MB-231; type: cell-based; details: Homo sapiens, 72 h incubation, mean ± SEM of three experiments, read-out: Cytotoxicity (GI50) against MDA-MB-231
Method: as §1, §2

[7] = MTT cytotoxicity assay, normal hTERT-immortalized lung fibroblasts; type: cell-based; details: human, hTERT-immortalized lung fibroblasts (normal cell line), 72 h incubation, mean ± SEM of three experiments, read-out: Cytotoxicity (GI50) against hTERT Lung Fibroblasts
Method: as §1, §2

| melting point | SMILES | GI50 [1] [µM] | GI50 [2] [µM] | GI50 (T98G glioblastoma cells) [µM] | GI50 ([3]; Homo sapiens, LNCaP, 72 h) [µM] | GI50 [4] [µM] | GI50 [5] [µM] | GI50 [6] [µM] | GI50 at 72 h [7] [µM] | GI50 [3] [µM] |
| --- | --- | --- | --- | --- | --- | --- | --- | --- | --- | --- |
| 188.5 °C (dec.) | O=C1c2ccccc2C(=O)c2c1ccc(-c1cc(C(F)(F)F)ccc1Cl)c2O [Compound 30, 2-(2-Chloro-5-(trifluoromethyl)phenyl)-1-hydroxyanthracene-9,10-dione] | 16.8 ± 2.11 | 21.6 ± 1.42 | 39.2 ± 1.65 | > 100 | 12.5 ± 3.17 | 55.1 ± 3.24 | 39.1 ± 1.71 | 25.6 ± 5.24 | – |
| 214.9 °C (dec.) | COc1cc(-c2cc(-c3cc(OC)c(OC)c(OC)c3)c3c(c2O)C(=O)c2ccccc2C3=O)cc(OC)c1OC [Compound 32, 1-Hydroxy-2,4-di-(3,4,5-trimethoxyphenyl)anthracene-9,10-dione] | – | – | – | – | – | – | – | – | – |
| 225 to 228 °C | O=C1c2ccccc2C(=O)c2c(O)c(-c3ccccc3)cc(-c3ccccc3)c21 [Compound 33, 1-Hydroxy-2,4-diphenylanthracene-9,10-dione] | 18.3 ± 1.12 | 56.8 ± 2.36 | 24.6 ± 0.85 | 21.3 ± 1.16 | > 100 | > 100 | 28.3 ± 1.06 | 52.8 ± 8.05 | – |
| 119.8 °C (dec.) | Cc1ccccc1-c1cc(-c2ccccc2C)c2c(c1O)C(=O)c1ccccc1C2=O [Compound 34, 1-Hydroxy-2,4-di-o-tolylanthracene-9,10-dione] | > 100 | > 100 | > 100 | > 100 | > 100 | > 100 | > 100 | 72.2 ± 4.18 | – |
| 192.9 °C (dec.) | COc1cccc(-c2cc(-c3cccc(OC)c3OC)c3c(c2O)C(=O)c2ccccc2C3=O)c1OC [Compound 36, 2,4-Di-(2,3-dimethoxyphenyl)-1-hydroxyanthracene-9,10-dione] | 37 ± 1.41 | 36.8 ± 1.42 | 15.5 ± 0.92 | 16.7 ± 1.86 | 10.6 ± 1.12 | 25.8 ± 0.94 | 22.6 ± 0.86 | 12.2 ± 2.08 | – |
| 263.3 °C (dec.) | O=C1c2ccccc2C(=O)c2c(O)c(-c3cc(F)cc(F)c3)cc(-c3cc(F)cc(F)c3)c21 [Compound 37, 2,4-Di-(3,5-difluorophenyl)-1-hydroxyanthracene-9,10-dione] | 9.1 ± 0.68 | 8.7 ± 0.89 | 10.1 ± 0.78 | 6.2 to 7.2 | 5.8 ± 0.38 | 56.6 ± 1.28 | 8.2 ± 0.96 | 10.5 ± 1.98 | 6.2 ± 0.43 |
| – | O=C1c2ccccc2C(=O)c2c(O)c(-c3cc(C(F)(F)F)ccc3Cl)cc(-c3cc(C(F)(F)F)ccc3Cl)c21 [Compound 38, 2,4-Di-(2-chloro-5-(trifluoromethyl)phenyl)-1-hydroxyanthracene-9,10-dione] | 39.4 ± 2.16 | > 100 | 7.8 ± 0.56 | > 100 | 6.5 ± 0.89 | > 100 | 32.5 ± 5.37 | 19.4 ± 0.97 | – |
| 150 to 152 °C | O=C1c2ccccc2C(=O)c2c(O)c(-c3ccc(Cl)cc3C(F)(F)F)cc(-c3ccc(Cl)cc3C(F)(F)F)c21 [Compound 39, 2,4-Di-(4-Chloro-2-(trifluoromethyl)phenyl)-1-hydroxyanthracene-9,10-dione] | – | – | – | – | – | – | – | – | – |
| 187.1 °C (dec.) | COc1ccc(-c2cc(Br)c3c(c2O)C(=O)c2ccccc2C3=O)cc1 [Compound 40, 4-Bromo-1-hydroxy-2-(4-methoxyphenyl)anthracene-9,10-dione] | 6.1 ± 0.38 | 10.2 ± 1.03 | 8.1 ± 0.98 | 22.2 ± 1.26 | 7.1 ± 0.72 | 35.6 ± 3.28 | 10.5 ± 1.03 | 16.5 ± 0.46 | – |
| – | COc1ccc(-c2cc(-c3cc(OC)c(OC)c(OC)c3)c(O)c3c2C(=O)c2ccccc2C3=O)cc1 [Compound 44, 1-Hydroxy-4-(4-methoxyphenyl)-2-(3,4,5-trimethoxyphenyl)anthracene-9,10-dione] | 41.8 ± 5.27 | > 100 | 16.5 ± 1.26 | 14.2 ± 3.12 | 15.2 ± 1.06 | 40.5 ± 6.44 | 19.1 ± 0.98 | 36.2 ± 1.31 | – |
